We go through 1 compound from patent US9775902B2, “Compounds and methods for treatment of stroke” (FIBROGEN, INC, priority 2006, dated 2017).

Assay [1] has as its system vascular endothelial growth factor (VEGF). Description: Brain VEGF gene expression in mice after intravenous injection. Conditions: 20 mg/kg i.v., four hours, quantitative real time PCR normalized to 18s RNA. The class given is in vivo, Swiss Webster mice. As to the method:
The effect of compounds of the present invention on regulation of cytoprotective and neuroprotective gene expression in brain was evaluated. In one series of experiments, male Swiss Webster mice were administered by intravenous injection various compounds of the present invention. Animals treated by intravenous injection received a 6 ml/kg volume of either 5% Dextrose with an equimolar amount of Meglumine (vehicle control) or 20 mg/kg of a compound of the present invention in 5% dextrose with an equimolar amount of Meglumine Animals were euthanized four hours later and their brains placed in RNAlater (Ambion, Austin Tex.) for subsequent analysis. Tissues were homogenized in Trizol (Invitrogen, Carlsbad Calif.) using 5-mm steel beads in a Mixer Mill (Qiagen, Valencia Calif.). RNA was isolated from the Trizol solution and then further purified using RNeasy kit (Qiagen). cDNA was prepared from […] total RNA using Omniscript reverse transcriptase (Qiagen) and random hexamers. Quantitative real time PCR was performed in a 7900HT instrument (Applied Biosystems, Foster City Calif.) using TaqMan Assays-on-Demand (Applied Biosystems). Gene expression levels were normalized to that of 18s RNA.

The test system of assay [2] is Wistar rats, transient occlusion of the MCA. The assay can be described thus: Rat tMCAO, 28 days: lesion area, neuronal degeneration, brain tissue loss (Fluoro-Jade B). The class given is in vivo. The conditions noted are these: 60 mg/kg p.o. at 1.5 and 24 hours after reperfusion then 30 mg/kg every other day, vs non-treated control. The procedure: In another series of experiments, the long term effect of administration of compounds of the present invention on stroke and brain tissue damage associated with stroke was examined. For these studies, the effect of compounds of the present invention on lesion area, neuronal degeneration, and brain tissue loss following stroke was examined 28 days after transient MCA occlusion. Wistar rats (320 g) were subjected to transient occlusion of the MCA as described above. Compound F (60 mg/kg) was administered by oral gavage at 1.5 hours and 24 hours after reperfusion and subsequently every other day (using a dose of 30 mk/kg, p.o.) for 28 days. Twenty-eight days after transient MCA occlusion, animals were anesthetized with 3% isoflurane in oxygen and transcardially perfused with 100 ml of 0.9% saline solution (Hospira Inc, Lake Forest Ill.). Brains were removed and sliced into 6 coronal sections, 2 mm thick, and embedded in cryomold standard (Sakura Finetek, Ca) using O.C.T. embedded medium (Sakura Finetek, Ca). […]
Changes in lesion area were measured as follows. […] Lesion area was determined by measuring the infarcted (i.e., non-Fluoro-Jade B stained) areas of each brain section. […]
Changes in neuronal degeneration were measured as follows. […] Fluoro-Jade B positive cells observed in the digital photographs were quantified using Image Pro-Plus image analysis software (Media Cybernetics, Silver Spring Md.). Extent of neuronal degeneration was determined by comparing the total number of Fluoro-Jade B positive cells per mm^2 area of the treated group to the same area of the corresponding vehicle-control group. The distance of each coronal section from bregma was determined.
Changes in area of brain tissue loss were measured as follows. […] Area of brain tissue loss, associated with the ischemic insult, was measured by […]. A percentage value was then determined by dividing the area of brain tissue loss associated with the stroke by the total area of the contralateral hemisphere. […]

The subject of assay [3] is Wistar rats, transient MCA occlusion. Description: Grip strength test in rat tMCAO. The class given is in vivo. Conditions: 60 mg/kg p.o. at 1.5 and 24 hours after reperfusion then 30 mg/kg every other day, days 7, 14, 21, and 28, vs non-treated control, FIG. 5. From the text: Rats subjected to cerebral ischemia following transient MCA occlusion have deficits in sensorimotor and neuromuscular function which can be assessed using various behavioral tests. (See, e.g., Aronowski et al. J Cereb Blood Flow Metab (1996) 16:705-713; and Colbourne et al. J Cereb Blood Flow Metab (2000) 20:1702-1708.) The effect of compounds of the present invention on various functional impairments associated with stroke was examined using an animal model of ischemic stroke. In this series of experiments, male Wistar rats (300 g) underwent behavioral testing after transient MCA occlusion. One day prior to MCAO surgery, the rats were trained to the grip strength meter and subjected to tactile adhesion testing. Following their training, rats were subjected to transient occlusion of the MCA in the same manner described in Example 10 above. Compound F (60 mg/kg, p.o.) was administered by oral gavage at 1.5 hours and 24 hours after reperfusion and then every other day (with a dose of 30 mk/kg, p.o.) for 28 days. […]
Grip strength was used to assess neuromuscular function. Rat grip strength was determined using a standard rodent grip strength meter (Columbus Instruments, Columbus Ohio). […] Grip strength was assessed with a gentle consistent pull in the caudal direction. The digital reading on the meter was recorded and the mean of three trials reported. […]

As for `COc1ccc(Oc2ccc3c(O)c(C(=O)NCC(=O)O)ncc3c2)cc1` [Compound F, {[4-Hydroxy-7-(4-methoxy-phenoxy)-isoquinoline-3-carbonyl]-amino}-acetic acid], the “VEGF gene expression in brain” value in assay [1] is 1.5. The lesion area result in assay [2] (FIG. 1) is recorded as “reduced”. The “neuronal degeneration (Fluoro-Jade B positive cells)” value in assay [2] (FIG. 2) was “reduced”. Moreover, in assay [2] (FIG. 3), the brain tissue loss entry is recorded as “reduced”. The grip strength result in assay [3] is on record as “significantly improved”.
